pIC50: −log10 of the molar value. Like-named read-outs stand apart in the source and are kept apart here.

Assay [1] has as its system phosphorylated SYK (tyrosine 525/526). The assay can be described thus: Immunoblot of phospho-SYK Tyr525/526. Format: cell-based, human. The note with it: MOLM-13, MV4-11, and OCI-AML3, 10-min treatment. The method, then: (§1) Cell lines were serum starved overnight followed by a 10-min treatment. Cells were washed in ice-cold PBS then lysed in 1X Cell Lysis Buffer (CST) supplemented with proteinase and phosphatase inhibitors cocktail (Roche). Pierce BCA Protein Assay was used to quantify the protein lysates (Thermo Fisher Scientific, Waltham, MA). For Immunoblotting, 15–25 μg of protein lysate was prepared in 2X or 4X Laemmeli’s sample buffer (Bio-Rad Laboratories, Hercules, CA) and heated for 5 min at 100 °C. Samples were separated on 8% sodium dodecyl sulfate polyacrylamide gel and transferred onto nitrocellulose membrane (Bio-Rad Laboratories, Hercules, CA). The membranes were blocked for 1 h in Blocker BLOTTO Blocking Buffer (Thermo Fisher Scientific, Waltham, MA) or 5% non-fat milk followed by overnight incubation at 4 °C with primary antibody followed by HRP-conjugated secondary antibodies and visualized with chemiluminescent Pierce ECL Substrate (Thermo Fisher Scientific, Waltham, MA) on X-ray films.
Fig. 3 ARQ 531 modulates AML pro-survival kinases. Immunoblot analysis for MOLM-13, MV4-11, and OCI-AML3 AML cell lines (representative of 2-3 independent blots). […] Twenty to 25 μg of total protein lysate was loaded per lane. GAPDH, HSP90, or β-Actin were used as loading controls. a, b Modulation of phosphorylated SFK and downstream targets in FLT3-ITD cell lines MOLM-13 and MV-11, respectively. c, d Modulation of phosphorylated SYK and BTK in all three cell lines

Assay [2] in a line: MTT proliferation assay 72 h, Ba/F3 lines with FLT3-ITD, TKD or both (all lines together). Format: cell-based, murine. Particulars: Mus musculus, BaF3, range across cell lines, read-out: IC50 range over the Ba/F3 FLT3 mutant cell lines.
Assay [3] deals with phosphorylated SFK, FLT3, STAT5, and ERK. Briefly: Immunoblot of phosphorylated SFK, FLT3, STAT5 and ERK in FLT3-ITD cell lines. In kind it is cell-based, human. Particulars: MOLM-13 and MV4-11, serum starved, 10-min treatment. The method, then:
as §1
(§2) Immunoblot analysis for MOLM-13, MV4-11, and OCI-AML3 AML cell lines (representative of 2-3 independent blots). […] Twenty to 25 μg of total protein lysate was loaded per lane.

A further assay has as its system MCL1. Briefly: Immunoblot of MCL1 modulation in MOLM-13. Format: cell-based, human. Particulars: MOLM-13, serum starved, 20 h treatment. How it is done: Fig. 6 Immunoblot analysis for MCL1 modulation in MOLM-13 FLT3-ITD cell line (representative of two independent blots). Cells were serum starved and treated for 20 h with ARQ 531 alone or in combination with venetoclax. […] GAPDH used as loading control. Band densitometry is done using ImageJ and quantified relative to GAPDH and DMSO treatment (a). In vitro analysis for additive or synergistic activity for ARQ 531 and venetoclax combination. Representative of three MTS proliferation assays. The MOLM-13 cell line was treated with increasing doses of ARQ 531 or venetoclax single agents or a combination of both for 72 h. Three biological replicates were analyzed using Combenefit software implementing the mathematical models for Highest Single Agent (HSA), Loewe, and Bliss (b). […]

Another assay deals with Ba/F3 FLT3-D835H. Briefly: MTT proliferation assay 72 h, Ba/F3 FLT3-D835H. Format: cell-based, murine. Particulars: Mus musculus, BaF3, read-out: Estimated absolute µM IC50 and 95% CI.
A further assay has as its system MOLM13. Briefly: MTT proliferation assay 72 h, parental MOLM13. Format: cell-based, human.
For assay [4], the system named is phosphorylation of Tyrosine 416 of the SFK. The assay can be described thus: Immunoblot of phospho-SFK Tyr416. In kind it is cell-based, human. The note with it: MOLM-13, MV4-11, and OCI-AML3, 10-min treatment. The method, then:
as §1, §2

A further assay deals with Ba/F3 FLT3-ITD/F691L. The assay can be described thus: MTT proliferation assay 72 h, Ba/F3 FLT3-ITD/F691L. In kind it is cell-based, murine. Particulars: Mus musculus, BaF3, read-out: Estimated absolute µM IC50 and 95% CI.

Description for Ba/F3 FLT3-D835H: (§3) For the MOLM-13 resistant and the Ba/F3-FLT3-ITD/TKD cell lines, cells were treated for 72 h and cell viability was evaluated using MTT assay (Roche Diagnostics. Mannheim. Germany) according to the manufacturer’s instructions.
Description for Ba/F3 FLT3-ITD/F691L: as §3
Description for MOLM13: A total of 5000–30,000 cells from the lines above were treated in a 96-well plate for 72 h. CellTiter 96 Aqueous MTS reagent (Promega, Madison, WI) was added to cells followed by a 3-h incubation at 37 °C, 5% CO2. The absorbance was measured at 490 nm using DTX 880 plate reader and the half maximal inhibitory concentration (IC50) was calculated using GraphPad Prism 7 (GraphPad Software, La Jolla, CA) and SAS/STAT software (SAS v9.4 for Windows, SAS Institute, Inc., Cary, NC). For the MOLM-13 resistant and the Ba/F3-FLT3-ITD/TKD cell lines, cells were treated for 72 h and cell viability was evaluated using MTT assay (Roche Diagnostics. Mannheim. Germany) according to the manufacturer’s instructions.

As for `O=C(c1ccc(Oc2ccccc2)cc1Cl)c1c[nH]c2ncnc(N[C@@H]3CC[C@@H](CO)OC3)c12` [ARQ 531], in assay [1], the “effect on phosphorylated SYK (tyrosine 525/526)” value is “inhibited the phosphorylated levels of SYK”. Also, the pIC50 in assay [2] was 5.12 to 5.92. Besides, in assay [3], the “concentration inhibiting phosphorylated levels of SFK, FLT3, STAT5, and ERK” value is not above 500 nM. In addition, the MCL1 protein level result in the assay with MCL1 is on record as “MCL1 downregulation”. Besides, the IC50 with Ba/F3 FLT3-D835H is 1.74 µM; with MOLM13 (Homo sapiens, MOLM-13, 72 h, read-out: Estimated absolute µM IC50 and 95% CI, MTT, 72 h) it was 1.33 µM; with MOLM13 (read-out: Estimated absolute µM IC50 and 95% CI, MTT, 72 h) it was 1.3 µM; in the assay with Ba/F3 FLT3-ITD/F691L, 7.12 µM. Also, in assay [4], the “inhibition of phosphorylation of Tyrosine 416 of the SFK” value is given as “potently inhibited”.
